Experimental data: PubChem BioAssay (NCI)
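Method: 48-hour compound exposure of cells in 96-well plates, five concentrations, linear interpolation of endpoints. Definition used: TGI = concentration required for complete inhibition of growth.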

Assays:
Assay in all cases: NCI anticancer screen, dose series, 48 h
[1] = test system: NCI-H522 lung
[2] = test system: COLO 205 colon
[3] = test system: NCI/ADR-RES ovarian
[4] = test system: 786-0 renal
[5] = test system: OVCAR-4 ovarian
[6] = test system: SNB-75 CNS
[7] = test system: NCI-H226 lung
[8] = test system: MDA-N
[9] = test system: OVCAR-5 ovarian
[10] = test system: NCI-H460 lung
[11] = test system: HOP-92 NSCLC
[12] = test system: SF-295 CNS
[13] = test system: TK-10 renal
[14] = test system: IGROV1 ovarian
[15] = test system: HS 578T breast
[16] = test system: HCT-116 colon
[17] = test system: SF-268 CNS
[18] = test system: BT-549 breast
[19] = test system: RXF 393 renal
[20] = test system: NCI-H23 lung
[21] = test system: MDA-MB-231 breast
[22] = test system: K-562 leukemia
[23] = test system: SK-MEL-2 melanoma
[24] = test system: MALME-3M melanoma
[25] = test system: SF-539 CNS
[26] = test system: LOX IMVI melanoma
[27] = test system: HCC-2998 colon
[28] = test system: ACHN renal
[29] = test system: UACC-62 melanoma
[30] = test system: MCF7 breast
[31] = test system: UO-31 renal
[32] = test system: HCT-15 colon
[33] = test system: SNB-19 CNS
[34] = test system: PC-3 prostate
[35] = test system: HT29 colon
[36] = test system: OVCAR-3 ovarian
[37] = test system: CCRF-CEM leukemia
[38] = test system: OVCAR-8 ovarian
[39] = test system: SK-MEL-28 melanoma
[40] = test system: MDA-MB-435
[41] = test system: U251 CNS
[42] = test system: HOP-62 NSCLC
[43] = test system: UACC-257 melanoma
[44] = test system: SK-MEL-5 melanoma
[45] = test system: SK-OV-3 ovarian
[46] = test system: DU-145 prostate
[47] = test system: A498 renal
[48] = test system: HL-60(TB) leukemia
[49] = test system: M14 melanoma
[50] = test system: SN12C renal
[51] = test system: SW-620 colon
[52] = test system: EKVX NSCLC
[53] = test system: A549 NSCLC

Cc1ccc(S(=O)(=O)NC(Cc2ccccc2)C(=O)CCl)cc1 (stereo not drawn)
TGI [1]: 21.4 µM | TGI [2]: 32.3 µM | TGI [3]: 62.9 µM | TGI [4]: 27.8 µM | TGI [5]: 18.9 µM | TGI [6]: 28 µM | TGI [7]: 33.1 µM | TGI [8]: 27.8 µM | TGI [9]: 31.2 µM | TGI [10]: 29.3 µM | TGI [11]: 26.8 µM | TGI [12]: 36.6 µM | TGI [13]: 30.9 µM | TGI [14]: 28.8 µM | TGI [15]: 11.3 µM | TGI [16]: 23.8 µM | TGI [17]: 31.4 µM | TGI [18]: 23.9 µM | TGI [19]: 6.33 µM | TGI [20]: 26.8 µM | TGI [21]: 27.3 µM | TGI [22]: > 100 µM | TGI [23]: 26 µM | TGI [24]: 27.8 µM | TGI [25]: 30.4 µM | TGI [26]: 20.1 µM | TGI [27]: 26.9 µM | TGI [28]: 30.1 µM | TGI [29]: 26.4 µM | TGI [30]: 24.5 µM | TGI [31]: 27 µM | TGI [32]: 31.6 µM | TGI [33]: 32.1 µM | TGI [34]: 29.5 µM | TGI [35]: 28.5 µM | TGI [36]: 29.2 µM | TGI [37]: > 100 µM | TGI [38]: 29.7 µM | TGI [39]: 32.9 µM | TGI [40]: 30.3 µM | TGI [41]: 29.7 µM | TGI [42]: 31 µM | TGI [43]: 24.9 µM | TGI [44]: 25 µM | TGI [45]: 47 µM | TGI [46]: 31.6 µM | TGI [47]: 31.7 µM | TGI [48]: > 100 µM | TGI [49]: 26.2 µM | TGI [50]: 25.3 µM | TGI [51]: 24.1 µM | TGI [52]: 34.4 µM | TGI [53]: 31.5 µM
